# Results taken from BindingDB's records for doi:10.1021/jm00350a009 (1982).
# pIC50: −log10 of the molar value.
# Assay: Compound was tested for inhibition of [3H]dihydroalprenolol radioligand binding to Beta-1 adrenergic receptor in dog heart.
row,Structure (SMILES),pIC50
1,CC(C)(C)NC[C@H](O)CON=C1c2ccccc2-c2ccccc21,7.54
2,CC(C)(C)NC[C@@H](O)CON=C1c2ccccc2-c2ccccc21,7.37
3,Cc1ccc(OCC(O)CNC(C)C)c2c1CCC2 (centres undefined) [1-Isopropylamino-3-(7-methyl-indan-4-yloxy)-propan-2-ol],6.73
4,CC(C)(C)NCC(O)CON=C1c2ccccc2-c2ccccc21 (centres undefined) [Fluoren-9-one O-(3-tert-butylamino-2-hydroxy-propyl)-oxime],7.42
